# Key:
# [1] = molecular target: T1, Adenosine A1 (Homo sapiens, UniProt P30542); experiment: receptor screen, Adenosine A1; type: binding; settings: [3H]DPCPX, inactive = displacement at 10,000 nM less than 75%
# T1 sequence (P30542 1-326): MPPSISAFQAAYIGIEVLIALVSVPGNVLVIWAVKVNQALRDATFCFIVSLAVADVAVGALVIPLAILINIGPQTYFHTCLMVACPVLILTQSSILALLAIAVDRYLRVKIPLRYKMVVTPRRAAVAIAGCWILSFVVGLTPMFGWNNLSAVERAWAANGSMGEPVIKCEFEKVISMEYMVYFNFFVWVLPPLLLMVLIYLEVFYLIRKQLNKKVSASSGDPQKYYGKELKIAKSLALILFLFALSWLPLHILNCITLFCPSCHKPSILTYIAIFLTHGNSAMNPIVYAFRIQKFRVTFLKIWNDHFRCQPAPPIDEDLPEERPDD
# [2] = tested on: Glutamate, NMDA, phencyclidine; experiment: receptor screen, Glutamate, NMDA, phencyclidine; type: binding, Rat; settings: [3H]TCP, inactive = displacement at 10,000 nM less than 75%
# [3] = molecular target: T2, Muscarinic M2 (Homo sapiens, UniProt P08172); experiment: receptor screen, Muscarinic M2; type: binding; settings: read-out: Ki Muscarinic M2, [3H]N-methylscopolamine
# T2 sequence (P08172 1-466): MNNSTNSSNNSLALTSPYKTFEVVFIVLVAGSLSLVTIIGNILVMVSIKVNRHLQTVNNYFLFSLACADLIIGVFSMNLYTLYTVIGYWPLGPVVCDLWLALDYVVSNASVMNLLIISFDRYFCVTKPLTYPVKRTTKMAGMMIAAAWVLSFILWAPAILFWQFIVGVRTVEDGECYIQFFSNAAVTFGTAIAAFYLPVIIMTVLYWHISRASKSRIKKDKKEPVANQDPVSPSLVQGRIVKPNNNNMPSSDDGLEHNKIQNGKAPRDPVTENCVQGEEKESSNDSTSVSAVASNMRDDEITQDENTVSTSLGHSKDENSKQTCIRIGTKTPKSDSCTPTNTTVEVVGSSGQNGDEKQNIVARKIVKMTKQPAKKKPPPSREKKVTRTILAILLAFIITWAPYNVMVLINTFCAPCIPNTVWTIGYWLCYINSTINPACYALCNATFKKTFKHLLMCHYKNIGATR
# [4] = molecular target: Muscarinic M3 (Homo sapiens, UniProt P20309); experiment: receptor screen, Muscarinic M3; type: binding; settings: read-out: Ki Muscarinic M3, [3H]N-methylscopolamine
# [5] = molecular target: K+ Channel hERG (Homo sapiens, UniProt Q12809); experiment: receptor screen, K+ Channel hERG; type: binding; settings: read-out: Ki K+ Channel hERG; receptor screen, [3H]Astemizole
# [6] = tested on: rats; experiment: Place conditioning; type: in vivo; settings: rat, i.p. (1 to 10 mg/kg), injected immediately before conditioning sessions
# [7] = molecular target: DAT; settings: read-out: Ki DAT; ref Newman and Katz (2009); cited from earlier work
# [8] = molecular target: SERT; settings: read-out: Ki SERT; ref Woolverton et al., Psychopharmacology (2001); cited from earlier work
# [9] = molecular target: NET; settings: read-out: Ki NET; ref Woolverton et al., Psychopharmacology (2001); cited from earlier work
# Chain of Muscarinic M3 (P20309 whole entry): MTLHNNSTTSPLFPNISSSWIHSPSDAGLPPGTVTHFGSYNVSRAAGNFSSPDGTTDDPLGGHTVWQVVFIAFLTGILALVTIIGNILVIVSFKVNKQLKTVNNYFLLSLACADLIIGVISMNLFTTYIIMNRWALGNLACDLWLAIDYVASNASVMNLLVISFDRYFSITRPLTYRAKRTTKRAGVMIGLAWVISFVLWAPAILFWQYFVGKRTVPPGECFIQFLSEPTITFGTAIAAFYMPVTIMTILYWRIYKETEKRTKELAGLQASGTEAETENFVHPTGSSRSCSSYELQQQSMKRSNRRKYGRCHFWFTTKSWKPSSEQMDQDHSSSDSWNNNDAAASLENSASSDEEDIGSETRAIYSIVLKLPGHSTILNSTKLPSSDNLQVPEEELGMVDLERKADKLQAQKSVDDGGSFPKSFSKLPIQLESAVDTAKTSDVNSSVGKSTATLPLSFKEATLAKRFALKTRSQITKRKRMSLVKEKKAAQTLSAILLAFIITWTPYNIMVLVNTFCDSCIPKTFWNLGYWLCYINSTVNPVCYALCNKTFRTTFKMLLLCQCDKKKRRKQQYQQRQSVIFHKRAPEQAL
# Chain of K+ Channel hERG (Q12809 whole entry): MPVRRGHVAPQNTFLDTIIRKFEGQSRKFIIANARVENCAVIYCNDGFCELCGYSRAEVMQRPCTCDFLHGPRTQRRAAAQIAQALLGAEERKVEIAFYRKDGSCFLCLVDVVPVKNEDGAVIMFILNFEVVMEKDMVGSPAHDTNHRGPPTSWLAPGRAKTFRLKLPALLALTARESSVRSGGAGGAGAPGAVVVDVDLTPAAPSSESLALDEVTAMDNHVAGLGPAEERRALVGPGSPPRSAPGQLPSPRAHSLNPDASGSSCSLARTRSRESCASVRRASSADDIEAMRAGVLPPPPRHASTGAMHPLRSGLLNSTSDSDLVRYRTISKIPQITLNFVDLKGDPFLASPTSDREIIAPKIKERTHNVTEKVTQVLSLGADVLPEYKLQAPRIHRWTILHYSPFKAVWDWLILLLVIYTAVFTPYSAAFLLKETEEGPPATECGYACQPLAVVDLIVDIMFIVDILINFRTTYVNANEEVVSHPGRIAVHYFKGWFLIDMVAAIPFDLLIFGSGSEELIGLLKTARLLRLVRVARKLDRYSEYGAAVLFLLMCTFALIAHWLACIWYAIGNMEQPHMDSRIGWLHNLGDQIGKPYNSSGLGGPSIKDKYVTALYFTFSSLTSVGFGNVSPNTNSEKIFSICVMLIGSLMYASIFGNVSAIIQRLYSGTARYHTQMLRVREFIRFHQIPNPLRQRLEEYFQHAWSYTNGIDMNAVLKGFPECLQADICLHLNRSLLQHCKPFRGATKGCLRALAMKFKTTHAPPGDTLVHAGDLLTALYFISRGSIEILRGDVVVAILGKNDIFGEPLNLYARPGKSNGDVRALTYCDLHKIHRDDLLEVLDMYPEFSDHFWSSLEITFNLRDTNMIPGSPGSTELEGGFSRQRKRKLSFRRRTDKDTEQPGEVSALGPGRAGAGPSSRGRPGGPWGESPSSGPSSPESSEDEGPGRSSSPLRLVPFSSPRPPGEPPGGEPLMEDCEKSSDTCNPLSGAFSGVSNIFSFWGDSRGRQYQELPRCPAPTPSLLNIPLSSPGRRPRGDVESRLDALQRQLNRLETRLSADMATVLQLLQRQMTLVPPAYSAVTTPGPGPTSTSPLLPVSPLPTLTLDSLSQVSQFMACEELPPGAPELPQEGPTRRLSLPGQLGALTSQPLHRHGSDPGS
smiles,measurement,setting,value
"CN1C2CCC1CC(OC(c1ccccc1)c1ccc(Cl)cc1)C2 (stereo not drawn) [4-Cl-BZT, 4′-chloro-3α-(diphenylmethoxy)tropane]",Ki Adenosine A1,[1],inactive
same,"Ki Glutamate, NMDA, phencyclidine",[2],inactive
same,Ki,[3],5.88 ± 0.63 nM
same,Ki,[4],0.384 ± 0.043 nM
same,Ki,[5],804 ± 300 nM
same,place conditioning (time allocated to compound-paired compartment),[6],did not increase the time allocated to the compound-paired compartment
same,Ki,[7],10.5 ± 1.21 nM
same,Ki,[8],5120 ± 395 nM
same,Ki,[9],1470 ± 180 nM
